For 15 molecules, IC50 results are on record in patent publication US20110275673A1, “INHIBITORS OF SPHINGOSINE KINASE 1” (priority 2008, published 2011).

Structures are written as SMILES.

In the assay the target is T1, SPHK-1 (Homo sapiens, UniProt Q9NYA1).
T1 construct: purchased BPS Bioscience
T1 sequence (Q9NYA1 whole entry): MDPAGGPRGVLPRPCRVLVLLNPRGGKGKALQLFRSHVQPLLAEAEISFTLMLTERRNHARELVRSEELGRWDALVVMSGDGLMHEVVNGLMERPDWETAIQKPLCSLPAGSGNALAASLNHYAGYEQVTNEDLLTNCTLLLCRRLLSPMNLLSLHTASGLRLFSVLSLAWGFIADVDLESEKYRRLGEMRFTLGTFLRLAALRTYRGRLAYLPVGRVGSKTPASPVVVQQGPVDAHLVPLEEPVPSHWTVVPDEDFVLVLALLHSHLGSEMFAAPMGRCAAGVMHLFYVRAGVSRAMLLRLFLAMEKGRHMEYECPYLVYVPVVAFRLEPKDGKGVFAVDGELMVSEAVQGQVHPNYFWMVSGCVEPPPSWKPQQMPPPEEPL
The assay is described as follows: Reporter Assay: sphingosine kinase conversion of fluorescein-labeled sphingosine, read on Lab Chip 3000. In kind it is biochemical. As to conditions: 2 μM Fl-sphingosine, 25 μM ATP, 300 ng/ml SK1, 1 hour at room temperature; from percent conversion of substrate to product; read-out: SPHK-1 IC50 (n =). Here is the method:
Sphingosine kinase is a 49 kDa enzyme that catalyzes the formation of sphingosine-1-phosphate (S-1-P) from sphingosine.
Fluorescein labeled sphingosine was obtained from Echelon Biosciences (S-100F). Buffer reagents (1 M Hepes, 10 triton x-100, 100% glycerol, dithiothreitol 1 M MgCl2, ATP, 500 mM EDTA and DMSO) were purchased from Sigma. Coating reagent (CR-3), was obtained from Caliper Life Sciences.
0.05% Triton X-100, 2.5% glycerol, 0.1% CR-3, and 0,6% DMSO. Termination butler included 100 mM Hepes (pH 7.5), 40 mM EDTA, 0.05% Triton X-100, 2.5% glycerol, 0.3% CR-3, and 0.6% DMSO.
All assay components were made in reaction buffer. […] The assaylvas allowed to incubate at room temperature sealed and protected from light for 1 hour.
After 1 hour, 10 μl of termination buffer was added to terminate, the reaction, and the plate was read on a Lab Chip 3000. The plate was read for one cycle. The Lab Chip separated substrate and product based on charge.
Results were calculated based on percent conversion of substrate to product using the following formula: […]
Percent inhibition and IC50's for compounds of the invention were determined using the percent conversion values obtained horn the Lab Chip.
For orientation: A reporter such as luciferase makes a cellular process visible.
Usually IC50 stands for the concentration at which inhibition is half-maximal. Consider `CCCCCCCCCCCCc1ccc(NC(=O)[C@@H](N)[C@@H](C)O)cc1` [Example 8, (2S,3R)-2-Amino-N-(4-dodecylphenyl)-3-hydroxy-butanamide], for which the IC50 turned out to be 190 nM.
For `CCCCCCCCc1cc2cc(CNC(=O)[C@H]3NCC[C@@H]3O)ccc2[nH]1` [Example 108, (2S,3S)-3-Hydroxy-N-((2-octyl-1H-indol-5-yl)methyl)pyrrolidine-2-carboxamide] the value was 9400 nM; for `CCCCCCSCc1ccc(NC(=O)[C@H]2NCC[C@@H]2O)cc1` [Example 39, (2S,3S)-N-(4-(hexylthiomethyl)phenyl)-3-hydroxy-pyrrolidine-2-carboxamide], 110 nM; for `CCCCCCCCc1cc2cc(CNC(=O)[C@H]3NCC[C@@H]3O)ccc2n1C` [Example 109, (2S,3S)-3-Hydroxy-N-((1-methyl-2-octyl-1H-indol-5-yl)methyl)pyrrolidine-2-carboxamide], 300 nM.
In the case of `CCCCCCCCc1ccc(NC(=O)[C@H](CO)NC)cc1` [Example 51, (S)-3-Hydroxy-2-(methylamino)-N-(4-octylphenyl) propanamide], the IC50 was found to be 2800 nM.
The result for `CCCCCCCOc1ccc(NC(=O)[C@@H](N)[C@@H](C)O)cc1` [Example 12, (2S,3R)-2-Amino-N-(4-(heptyloxy)phenyl)-3-hydroxy-butanamide] reads 1500 nM.
As to `CCCCCCCCc1ccc(NC(=O)[C@H]2NC[C@H](O)[C@@H]2O)cc1` [Example 20, (2S,3R,4S)-3,4-Dihydroxy-N-(4-octylphenyl) pyrrolidine-2-carboxamide], the IC50 turned out to be 8300 nM.
On to `CCCCCCCCCCc1ccc(NC(=O)[C@@H](N)[C@@H](C)O)cc1` [Example 6, (2S,3R)-2-Amino-N-(4-decylphenyl)-3-hydroxy-butanamide], for which the IC50 is 46 nM.
Consider `O=C(Nc1ccc(CCCCCCCOc2ccc(F)cc2)cc1)[C@H]1NCC[C@@H]1O` [Example 25, (2S,3S)-N-(4-(7-(4-Fluorophenoxy)heptyl)phenyl)-3-hydroxy-pyrrolidine-2-carboxamide], for which the IC50 amounted to 370 nM.
For `CCCCCCCCc1cnc(-c2ccc(CNC(=O)[C@H]3NCC[C@@H]3O)cc2)s1` [Example 106, (2S,3S)-3-hydroxy-N-(4-(5-octylthiazol-2-yl)benzyl)pyrrolidine-2-carboxamide] the value was 70 nM; for `CCCc1ccc(-c2nc(-c3ccc(CNC(=O)[C@H]4NCC[C@@H]4O)cc3)no2)cc1` [Example 81, (2S,3S)-3-Hydroxy-N-(4-(5-(4-propylphenyl)-1,2,4-oxadiazol-3-yl)benzyl)pyrrolidine-2-carboxamide], 1800 nM; for `O=C(NCc1ccc2oc(CCOc3ccc(F)cc3)cc2c1)[C@H]1NCC[C@@H]1O` [Example 111, (2S,3S)—N-((2-(2-(4-Fluorophenoxy)ethyl)benzofuran-5-yl)methyl)-3-hydroxypyrrolidine-2-carboxamide], 5000 nM.
The result for `CCCCCCCCc1cc2ccc(CNC(=O)[C@H]3NCC[C@@H]3O)cc2o1` [Example 112, (2S,3S)-3-Hydroxy-N-((2-octylbenzofuran-6-yl)methyl)pyrrolidine-2-carboxamide] reads 490 nM.
For `CCCCCCCCc1ccc(NC(=O)[C@@H](N)CO)cc1` [Example 4, (S)-2-Amino-3-hydroxy-N-(4-octylphenyl) propanamide] the value was 4300 nM.
Take `CCCCCCCCc1ccc(NC[C@H]2NCC[C@@H]2O)cc1` [Example 9, (2R,3S)-2-((4-Octylphenyl-amino)methyl) pyrrolidin-3-ol]: the IC50 amounted to 740 nM.
